From PubChem BioAssay AID1259407 (Chemical Carcinogenesis Research Information System (CCRIS), 2018)
Active and inactive are the calls of the source. No rule for the calls is given here.

System: CCRIS mutagenicity, Ames/micronucleus/aberration tests
Assay: CCRIS mutagenicity studies
[1] = Test System: AMES SALMONELLA TYPHIMURIUM, Strain/Indicator: TA98, Metabolic Activation: NONE, Method: STANDARD PLATE
[2] = Test System: AMES SALMONELLA TYPHIMURIUM, Strain/Indicator: TA100, Metabolic Activation: NONE, Method: STANDARD PLATE
[3] = Test System: AMES SALMONELLA TYPHIMURIUM, Strain/Indicator: TA98, Metabolic Activation: NONE, Method: PREINCUBATION
[4] = Test System: AMES SALMONELLA TYPHIMURIUM, Strain/Indicator: TA100, Metabolic Activation: NONE, Method: PREINCUBATION
[5] = Test System: AMES SALMONELLA TYPHIMURIUM, Strain/Indicator: TA1535, Metabolic Activation: NONE, Method: STANDARD PLATE

CC12CCC(CC1)C(C)(C)O2
mutagenic call (End Point: IN VITRO CHROMOSOMAL ABERRATIONS, Test System: CHINESE HAMSTER OVARY CELLS, Metabolic Activation: NONE): inactive; negative; precipitation occurred at 663 ug/ml | mutagenic call (End Point: IN VITRO CHROMOSOMAL ABERRATIONS, Test System: CHINESE HAMSTER OVARY CELLS, Metabolic Activation: RAT, LIVER, S-9, AROCLOR 1254): inactive; negative; precipitation occurred at all doses | mutagenic call (Test System: AMES SALMONELLA TYPHIMURIUM, Strain/Indicator: TA97A, Metabolic Activation: NONE, Method: STANDARD PLATE): inactive; negative | mutagenic call (Test System: AMES SALMONELLA TYPHIMURIUM, Strain/Indicator: TA97A, Metabolic Activation: RAT LIVER S-9, AROCLOR 1254, Method: STANDARD PLATE): inactive; negative | mutagenic call [1]: inactive; negative | mutagenic call (Test System: AMES SALMONELLA TYPHIMURIUM, Strain/Indicator: TA98, Metabolic Activation: RAT LIVER S-9, AROCLOR 1254, Method: STANDARD PLATE): inactive; negative | mutagenic call [2]: inactive; negative | mutagenic call (Test System: AMES SALMONELLA TYPHIMURIUM, Strain/Indicator: TA100, Metabolic Activation: RAT LIVER S-9, AROCLOR 1254, Method: STANDARD PLATE): inactive; negative | mutagenic call (Test System: AMES SALMONELLA TYPHIMURIUM, Strain/Indicator: TA102, Metabolic Activation: NONE, Method: STANDARD PLATE): inactive; negative | mutagenic call (Test System: AMES SALMONELLA TYPHIMURIUM, Strain/Indicator: TA102, Metabolic Activation: RAT LIVER S-9, AROCLOR 1254, Method: STANDARD PLATE): inactive; negative | mutagenic call (Test System: E. coli, Strain/Indicator: WP2 IC185 trpE65, Metabolic Activation: None, Method: Plate incorporation): inactive; negative | mutagenic call (Test System: E. coli, Strain/Indicator: WP2 IC202 trpE65 oxyR/pKM101, Metabolic Activation: None, Method: Plate incorporation): inactive; negative

Cc1ccc(NO)cc1[N+](=O)[O-]
mutagenic call (Test System: AMES SALMONELLA TYPHIMURIUM, Strain/Indicator: TA98, Metabolic Activation: NONE, Method: SUSPENSION/PLATE): inactive; negative | mutagenic call (Test System: AMES SALMONELLA TYPHIMURIUM, Strain/Indicator: TA98, Metabolic Activation: RAT, LIVER, S-9, PHENOBARBITAL AND 5,6-BENZOFLAVONE, Method: SUSPENSION/PLATE): inactive; negative | mutagenic call (Test System: AMES SALMONELLA TYPHIMURIUM, Strain/Indicator: TA100, Metabolic Activation: NONE, Method: SUSPENSION/PLATE): inactive; negative | mutagenic call (Test System: AMES SALMONELLA TYPHIMURIUM, Strain/Indicator: TA100, Metabolic Activation: RAT, LIVER, S-9, PHENOBARBITAL AND 5,6-BENZOFLAVONE, Method: SUSPENSION/PLATE): inactive; negative

CC[N+](=O)[O-]
mutagenic call [3]: inactive; negative | mutagenic call (Test System: AMES SALMONELLA TYPHIMURIUM, Strain/Indicator: TA98, Metabolic Activation: RAT, LIVER, S-9, KANECHLOR 500, Method: PREINCUBATION): inactive; negative | mutagenic call [4]: inactive; negative | mutagenic call (Test System: AMES SALMONELLA TYPHIMURIUM, Strain/Indicator: TA100, Metabolic Activation: RAT, LIVER, S-9, KANECHLOR 500, Method: PREINCUBATION): inactive; negative | mutagenic call (Test System: AMES SALMONELLA TYPHIMURIUM, Strain/Indicator: TA102, Metabolic Activation: NONE, Method: PREINCUBATION): inactive; negative | mutagenic call (Test System: E. COLI, Strain/Indicator: WP2 UVRA (PKM101), Metabolic Activation: NONE, Method: PREINCUBATION): inactive; negative | mutagenic call (Test System: E. COLI, Strain/Indicator: WP2 UVRA (PKM101), Metabolic Activation: RAT, LIVER, S-9, KANECHLOR 500, Method: PREINCUBATION): inactive; negative

O=C1NC2(CCCCC2)C(=O)N1CCN1CC1
mutagenic call [5]: active; positive

CC(=O)O[C@H]1C[C@@H]2[C@@]3(C)CCCC(C)(C)[C@@H]3CC[C@@]2(C)[C@@H]2CC=C(C=O)[C@H](C=O)[C@@]12C
mutagenic call [1]: inactive; negative | mutagenic call [2]: inactive; negative | mutagenic call (Test System: AMES SALMONELLA TYPHIMURIUM, Strain/Indicator: TA2637, Metabolic Activation: NONE, Method: STANDARD PLATE): inactive; negative

Nc1ccc(Oc2ccc([N+](=O)[O-])cc2)cc1
mutagenic call (Test System: AMES SALMONELLA TYPHIMURIUM, Strain/Indicator: TA98(NR), Metabolic Activation: NONE, Method: PREINCUBATION): inactive; negative | mutagenic call (Test System: AMES SALMONELLA TYPHIMURIUM, Strain/Indicator: TA98(NR), Metabolic Activation: RAT, LIVER, S-9, AROCLOR 1254, Method: PREINCUBATION): active; positive | mutagenic call [3]: active; positive | mutagenic call (Test System: AMES SALMONELLA TYPHIMURIUM, Strain/Indicator: TA98, Metabolic Activation: RAT, LIVER, S-9, AROCLOR 1254, Method: PREINCUBATION): active; positive | mutagenic call (Test System: AMES SALMONELLA TYPHIMURIUM, Strain/Indicator: TA100(NR), Metabolic Activation: NONE, Method: PREINCUBATION): active; positive | mutagenic call (Test System: AMES SALMONELLA TYPHIMURIUM, Strain/Indicator: TA100(NR), Metabolic Activation: RAT, LIVER, S-9, AROCLOR 1254, Method: PREINCUBATION): active; positive | mutagenic call [4]: active; positive | mutagenic call (Test System: AMES SALMONELLA TYPHIMURIUM, Strain/Indicator: TA100, Metabolic Activation: RAT, LIVER, S-9, AROCLOR 1254, Method: PREINCUBATION): active; positive

Cc1c[nH]c2ccccc12
mutagenic call [4]: inactive; negative | mutagenic call (Test System: AMES SALMONELLA TYPHIMURIUM, Strain/Indicator: TA100, Metabolic Activation: RAT LIVER S-9, PHENOBARBITOL/BETA-NAPHTHOFLAVONE, Method: PREINCUBATION): inactive; negative

C[Si](C)(C)O[Si](C)(C)O[Si](C)(C)C
mutagenic call (Test System: AMES SALMONELLA TYPHIMURIUM, Strain/Indicator: TA98, Metabolic Activation: HAMSTER, LIVER, S-9, AROCLOR 1254, Method: STANDARD PLATE): inactive; negative | mutagenic call [1]: inactive; negative | mutagenic call (Test System: AMES SALMONELLA TYPHIMURIUM, Strain/Indicator: TA98, Metabolic Activation: RAT, LIVER, S-9, AROCLOR 1254, Method: STANDARD PLATE): inactive; negative | mutagenic call (Test System: AMES SALMONELLA TYPHIMURIUM, Strain/Indicator: TA100, Metabolic Activation: HAMSTER, LIVER, S-9, AROCLOR 1254, Method: STANDARD PLATE): inactive; negative | mutagenic call [2]: inactive; negative | mutagenic call (Test System: AMES SALMONELLA TYPHIMURIUM, Strain/Indicator: TA100, Metabolic Activation: RAT, LIVER, S-9, AROCLOR 1254, Method: STANDARD PLATE): inactive; negative | mutagenic call (Test System: AMES SALMONELLA TYPHIMURIUM, Strain/Indicator: TA1535, Metabolic Activation: HAMSTER, LIVER, S-9, AROCLOR 1254, Method: STANDARD PLATE): inactive; negative | mutagenic call [5]: inactive; negative | mutagenic call (Test System: AMES SALMONELLA TYPHIMURIUM, Strain/Indicator: TA1535, Metabolic Activation: RAT, LIVER, S-9, AROCLOR 1254, Method: STANDARD PLATE): inactive; negative | mutagenic call (Test System: AMES SALMONELLA TYPHIMURIUM, Strain/Indicator: TA1537, Metabolic Activation: HAMSTER, LIVER, S-9, AROCLOR 1254, Method: STANDARD PLATE): inactive; negative | mutagenic call (Test System: AMES SALMONELLA TYPHIMURIUM, Strain/Indicator: TA1537, Metabolic Activation: NONE, Method: STANDARD PLATE): inactive; negative | mutagenic call (Test System: AMES SALMONELLA TYPHIMURIUM, Strain/Indicator: TA1537, Metabolic Activation: RAT, LIVER, S-9, AROCLOR 1254, Method: STANDARD PLATE): inactive; negative | mutagenic call (Test System: AMES SALMONELLA TYPHIMURIUM, Strain/Indicator: TA1538, Metabolic Activation: HAMSTER, LIVER, S-9, AROCLOR 1254, Method: STANDARD PLATE): inactive; negative | mutagenic call (Test System: AMES SALMONELLA TYPHIMURIUM, Strain/Indicator: TA1538, Metabolic Activation: NONE, Method: STANDARD PLATE): inactive; negative | mutagenic call (Test System: AMES SALMONELLA TYPHIMURIUM, Strain/Indicator: TA1538, Metabolic Activation: RAT, LIVER, S-9, AROCLOR 1254, Method: STANDARD PLATE): inactive; negative | mutagenic call (Test System: E. COLI, Strain/Indicator: WP2, Metabolic Activation: NONE, Method: STANDARD PLATE): inactive; negative | mutagenic call (Test System: E. COLI, Strain/Indicator: WP2, Metabolic Activation: RAT, LIVER, S-9, AROCLOR 1254, Method: STANDARD PLATE): inactive; negative | mutagenic call (Test System: MOUSE LYMPHOMA, Strain/Indicator: L5178Y (TK+/TK-), Metabolic Activation: NONE, Method: SUSPENSION/PLATE): active; positive. reevaluation of results: positive | mutagenic call (Test System: MOUSE LYMPHOMA, Strain/Indicator: L5178Y (TK+/TK-), Metabolic Activation: RAT, LIVER, S-9, AROCLOR 1254, Method: SUSPENSION/PLATE): inactive; negative. reevaluation of results: negative
